# Values quoted from earlier work as cited in patent publication US20060198860A1, “Synergistic blends of monoterpenes for mountain pine beetle pheromones” (Phero Tech Inc., priority 2005, published 2006).
# Like-named read-outs stand apart in the source and are kept apart here.
# Legend:
# mountain pine beetle [1] = settings: myrcene at approximately 100 mg per day
# mountain pine beetle [2] = settings: myrcene from 18 mg per day to 150 mg per day; traps also baited with trans-verbenol and exo-brevicomin
# mountain pine beetle [3] = settings: for catch versus pheromones alone: five doses, less than 1.0 mg per day to over 6.0 g per day
# mountain pine beetles = settings: component alone
# mountain pine beetle [4] = settings: in one instance (of four Rocky Mountain locations); with trans-verbenol and exo-brevicomin
molecule,measurement,setting,value
C=CC(=C)CCC=C(C)C [myrcene],synergist relative to the foliage blend,mountain pine beetle [1]; females,over three times better
same,synergist relative to the foliage blend,mountain pine beetle [1]; males,over four times a better synergist
same,numbers of both sexes captured on raising the release rate,mountain pine beetle [2],more than doubling
same,catches versus pheromones alone,mountain pine beetle [3]; doses of 0.9 and 6.4 g per day,significantly higher
trans-verbenol,beetles caught,mountain pine beetles,no beetles
CC1=CCC2C(C1)C2(C)C (centres unmarked) [3-carene],beetles caught,mountain pine beetles,one female
same,catches versus pheromones alone,mountain pine beetle [3]; dose of 600 mg per day,higher than to the pheromones alone
CC1=CCC(=C(C)C)CC1 [terpinolene],"synergist, times better than myrcene",mountain pine beetle [4],~88 times
same,catch versus pheromones alone,mountain pine beetle [3],no combination of terpinolene with trans-verbenol and exo-brevicomin that resulted in higher catches
same,response versus pheromones alone,mountain pine beetle [3]; highest dose (2.1 g per day),significantly lowered
C=C1C=CC(C(C)C)CC1 (stereo not drawn) [β-phellandrene],catch versus pheromones alone,mountain pine beetle [3],at no dose was the catch significantly higher
C=C1CCC2CC1C2(C)C (stereo not drawn) [β-pinene],catch versus pheromones alone,mountain pine beetle [3],at no dose was the catch significantly different
CC1=CCC2CC1C2(C)C (stereo not drawn) [α-pinene],catch versus pheromones alone,mountain pine beetle [3],at no dose was the catch significantly different
CC1=CCC(C(C)C)=CC1 [γ-terpinene],catches versus pheromone controls,mountain pine beetle [3]; doses of 51.7 mg per day and 1.1 g per day,significantly higher
